From US20180249709A1, “HERBICIDE COMPOSITIONS AND METHODS FOR CONTROLLING GROWTH OF PLANTS OF THE BUCKTHORN FAMILY” (priority 2016, published 2018)
Entries after “also recorded” stand apart in the source; their conditions may differ.

Experiments:
Buckthorn seeds = assay: Seed germination of Buckthorn seeds on filter paper in Petri plates; assay type: in vivo
Method: Juglone was purchased from Sigma Aldrich and diluted in sterile water to a 10^−3 M stock solution for 24 hours at 40° C., then further diluted to obtain 10^−4, 10^−5 and 10^−6 M solutions. Seeds were previously collected from 3 different sites (Site 1: Iroquois Shoreline Woods Park in Oakville, Ontario, Canada; Site 2: Ignatius Jesuit Centre in Guelph, Ontario, Canada, and Site 3: Snyder Flats Conservation Area in Bloomingdale, Ontario, Canada) and then placed into cold stratification. For this experiment, seeds were removed from 40 day cold stratification and surface sterilization was done for 30 s in 3% hydrogen peroxide followed by two one minute sterile water rinses. Sheets of 90 mm filter paper were placed on the bottom of Petri plates, followed by 15 seeds, and then topped with another sheet of filter paper. A pipette then dispensed 2 ml of treatment or control onto each plate directly onto the top filter paper, thereby wetting the seeds and bottom filter paper as well. Five reps (plates) were done for each site at each treatment. Plates were then placed into Ziploc bags (to maintain humidity) and kept at 24° C. in the dark. Plates were checked every day for germination (i.e. emergence of the radicle). The number of germinated seeds per plate was recorded daily. Using Microsoft Excel, a graph was created to show the average number of germinated seeds per group with standard error. Statistics were done using JMP statistical software.

Buckthorn seed radicles = assay: Radicle elongation of germinated Buckthorn seeds over 7 days; assay type: in vivo; conditions: for radicle growth between treatments of various concentrations: MANOVA repeated measures
Method: From the seed germination study (above), the first five (5) germinated Buckthorn seeds from each group (same treatment, same site) were set aside for radicle elongation measurements (see FIG. 6). These five were placed together in new Petri plates between two new filter papers dosed with treatment (i.e. same filter setup & treatment as germination study). For each of the 75 germinated seeds (5×15 groups), the initial length of the emerged radicle was measured. The length of the radicle was then re-measured daily for a total of 7 days. […] Therefore, on Day 7 all radicles were also sacrificed and scanned on an Epson® flatbed scanner then analyzed off-label by WinRhizo™ software, which measured the full length as “Brother 1” of the inputted “root”. Using Microsoft Excel, a graph was created to show the average length of radicle 7 days after emergence with standard error, when measured by hand. WinRhizo Day 7 measurements were compared to hand-measured Day 7 measurements to check for accuracy. Another graph was created to show the average growth of the radicle over time. Statistics were done using JMP™ statistical software.

## O=C1C=CC(=O)c2c(O)cccc21 [Juglone, 5-hydroxy-1,4-naphthalenedione]
Buckthorn seeds; 10^-5 M Juglone
  percentage of Buckthorn seeds that germinated, treatment vs control: consistently significantly lower
Buckthorn seeds; 10^-6 M Juglone
  percentage of Buckthorn seeds that germinated, treatment vs control: consistently significantly lower; also recorded: significantly effective in preventing seed germination
Buckthorn seeds; Day 12, Least Squares Model, control and 10^-3 to 10^-6 M Juglone, F(4,64)=6.2, p=0.003
  overall effect on germination, difference between the treatments: significant difference
Buckthorn seeds; Juglone concentration increased above 10^-5 M
  percentage of Buckthorn seeds that germinated, trend with concentration: appeared to increase
Buckthorn seed radicles; 10^-3 M Juglone, Day 7
  colour / appearance of radicles vs control: darker brown/black; also recorded: possible damaging effect
Buckthorn seed radicles; 10^-3 M Juglone, Ignatius Jesuit Centre site, MANOVA, hand-measured
  radicle elongation: limited radicle elongation significantly
Buckthorn seed radicles; 10^-3 M Juglone, all three sites, seven days, T-tests
  growth of radicles vs controls: significantly reduced growth; also recorded: significantly reduced radicle elongation
Buckthorn seed radicles; 10^-4 M Juglone, Iroquois Shoreline Woods Park site and Snyder Flats Conservation Area site only, T-tests
  growth of radicles vs controls: significantly reduced growth
Buckthorn seed radicles; ANOVA 2-way with replication, p=0.0005
  radicle growth among the treatments (net WinRhizo values): significant difference in growth
Buckthorn seed radicles; Ignatius Jesuit Centre site, hand-measured, F(4,19)=0.73, p=0.0264
  radicle growth between treatments of various concentrations: significant difference
Buckthorn seed radicles; Iroquois Shoreline Woods Park site, hand-measured, F(4,20)=0.38, p=0.1485
  radicle growth between treatments of various concentrations: no significant difference
Buckthorn seed radicles; Snyder Flats Conservation Area site, hand-measured, F(4,19)=0.17, p=0.5339
  radicle growth between treatments of various concentrations: no significant difference
Buckthorn seed radicles; more dilute concentrations (than 10^-4 M), seed from any site
  growth of radicles vs controls: Growth reduction was not achieved
